Experiments:
[1] = Compound stability in human liver microsomes; assay type: in vitro ADME; conditions: 1 μM
Description: (§1) Human or rat liver microsomes incubations were conducted in duplicate in polypropylene tubes. […] Compounds were dissolved in DMSO and diluted with PBS such that the final concentration of DMSO was 0.05%. The enzymatic reactions were commenced with the addition of protein after a 3 min preincubation and incubated in a water bath open to the air at 37° C. Reactions were terminated at various time points (0, 5, 10, 15, 30, 60 min) by adding equal volume of ice-cold acetonitrile. The samples were stored at −80° C. until LC/MS/MS assays.
(§2) The concentrations of compounds in the incubation mixtures of human (or rat) liver microsomes were determined by a LC/MS/MS method. The ranges of the linearity in the concentration range were determined for each tested compounds.
(§3) A parallel incubation was performed using denatured microsomes as the negative control, and reactions were terminated at various time points (for example, 0, 15, 60 min) after incubation at 37° C.
(§4) Dextromethorphan (70 μM) was selected as the positive control, and reactions were terminated at various time points (0, 5, 10, 15, 30, 60 min) after incubation at 37° C. Both positive and negative control samples were included in each assay to ensure the integrity of the microsomal incubation system.
(§5) Alternatively, the stability of some of the compounds disclosed herein in human (or rat) liver microsomes were also conducted in the following protocol. The incubations were conducted in duplicate in polypropylene tubes. […] Compounds were dissolved in DMSO and diluted with K-buffer such that the final concentration of DMSO was 0.2%. The enzymatic reactions were commenced with the addition of 15 μL of NADPH (final concentration: 2 mM) after 10 min preincubation and incubated in a 37° C. incubator. Reactions were terminated at various time points (0, 15, 30, 60 min) by adding 135 μL acetonitrile (contain IS). Protein is removed by centrifugation with 4,000 rpm, 10 min.
(§6) In the above protocol, ketanserin (1 μM) was selected as the positive control, and reactions were terminated at various time points (0, 15, 30, 60 min) after incubation at 37° C. The positive control sample was included in each assay to ensure the integrity of the microsomal incubation system.
(§7) The concentrations of compounds in liver microsome incubations were plotted as a percentage of the relevant zero time point control for each reaction. The in vivo CLint were extrapolated (ref: Naritomi et al., Prediction of human hepatic clearance from in vivo animal experiments and in vitro metabolic studies with liver microsomes from animals and humans, Drug Metab. Dispos., 2001, 29: 1316-1324.) […]

[2] = Compound stability in rat liver microsomes; assay type: in vitro ADME; conditions: 1 μM
Description: as §1, §2, §3, §4, §5, §6, §7

Colo-205 Tumor Xenograft = assay: Colo-205 tumor xenograft model, tumor growth inhibition; assay type: in vivo, athymic nude mice; conditions: Colo-205 xenograft, p.o., 15 days
Description: The efficacy of compounds disclosed herein is evaluated in a standard murine model of tumorigenesis. Human tumor cells (i.e., Colo-205 Tumor Xenograft models) are expended in culture, harvested, and injected subcutaneously onto the rear flank of 6-7 week old female athymic nude mice (BALB/cA nu/nu, Shanghai SLAC Laboratory Animal, Co.) (n=10 for vehicle group, n=8 for each dosing group). When tumor reaches a volume of 100-250 mm^3, animals are randomly divided into vehicle control (for example, 5% PEG400+5% Solutol HS 15 in water or 5% EtOH+5% CremophorEL+1% HCl (11.7%), pH 2.2 in water) and compound groups. Subsequent administration of compound by oral gavage (for example, 6-60 mpk/dose, dissolved in 5% PEG400+5% Solutol HS 15 in water or 5% EtOH+5% CremophorEL+1% HCl (11.7%), pH 2.2 in water) begins anywhere from day 0 to day 15 post tumor cell challenge and generally continues with once a day for the duration of the experiment.
Progression of tumor growth is assessed by tumor volumes and recorded as a function of time. The long (L) and short (W) axes of the subcutaneous tumors are measured with calipers twice weekly, and the tumor volume (TV) calculated as (L×W^2)/2). TGI is calculated from the difference between the median tumor volumes of vehicle-treated and drug-treated mice, expressed as a percentage of the median tumor volume of the vehicle-treated control group, by the following relation:
Initial statistical analysis is done by repeated measures analysis of variance (RMANOVA), Followed by Scheffe post-hoc testing for multiple comparisons. Vehicle alone (2% HPMC+1% Tween-80, or the like) is the negative control.
The compouds described herein were also administrated orally (p.o.) once a day (QD) or (BID) for 15 days in Colo-205 xenograft animal model. At doses of 20 mg/kg, the compouds produced statistically significant inhibition of growth of certain tumors grown subcutaneously in athymic nude mice.

[3] = Pharmacokinetics in SD rats; assay type: in vivo; conditions: vemurafenib dosed
From the text: (§8) Compounds disclosed herein are prodrugs. […] However, the prodrug compounds are modified in vivo to produce a parent compound that has known inhibitory activities against certain protein kinases. Kinase inhibition activity of prodrug compounds is established by quantitating the blood or plasma levels of parent compound after prodrug administration. In vivo blood or plasma levels are reported as Cmax (maximum blood or plasma concentration) and AUC (area under curve from zero to a certain period of time or infinity, a measure of total drug exposure). Methods of measuring Cmax, AUC and other pharmacokinetic parameters in dogs and rats are provided in Example C.
(§9) The LC/MS/MS system used in the analysis consists of an Agilent 1200 Series vacuum degasser, binary pump, well-plate autosampler, thermostated column compartment, the Agilent G6430 TripleQuadrupole Mass Spectrometer with an electrospray ionization (ESI) source. Quantitative analysis was carried out using MRM mode. The parameters for MRM transitions are in the Table A.
(§10) An Agilent XDB-C18, 2.1×30 mm, 3.5 μM column was used for the analysis. 5 μL of the samples were injected. Analysis condition: The mobile phase was 0.1% formic acid in water (A) and 0.1% formic acid in methanol (B). The flow rate was 0.4 mL/min. And the gradient of Mobile phase was in the Table B.
(§11) Alternatively, an Agilent 6330 series LC/MS/MS spectrometer equipped with G1312A binary pumps, a G1367A autosampler and a G1314C UV detector was used in the analysis. An ESI source was used on the LC/MS/MS spectrometer. The analysis was done in positive ion mode as appropriate and the MRM transition for each analyte was optimized using standard solution. A Capcell MP-C18 100×4.6 mm I.D., […] column (Phenomenex, Torrance, Calif., USA) was used during the analysis. The mobile phase was 5 mM ammonia acetate, 0.1% MeOH in water (A): 5 mM ammonia acetate, 0.1% MeOH in acetonitrile (B) (70:30, v/v). The flow rate was 0.6 mL/min. Column was maintained at ambient temperature. 20 μL of the samples were injected.
(§12) Selected compounds of the invention and Vemurafenib were assessed in pharmacokinetic studies in mice, rats, dogs or monkeys. The compounds were administered as a water solution, 2% HPMC+1% TWEEN® 80 in water solution, 5% DMSO+5% solutol in saline, 4% MC or capsule. For the intravenous administration, the animals were generally given at 1 or 2 mg/kg dose. For the oral (p.o.) dosing, mice and rats were generally given 5 or 10 mg/kg dose, and dogs and monkeys were generally given 7-100 mg/kg dose. The blood samples (0.3 mL) were drawn at 0.25, 0.5, 1.0, 2.0, 3.0, 4.0, 6.0, 8.0, 12 and 24 h time points or 0.083, 0.25, 0.5, 1.0, 2.0, 4.0, 6.0, 8.0 and 24 h time points and centrifuged at 3,000 or 4000 rpm for 2 to 10 min. The plasma solutions are collected and stored at −20° C. or −70° C. before analyzed by LC/MS/MS as described above.

[4] = Pharmacokinetics in beagle dogs; assay type: in vivo; conditions: vemurafenib dosed
From the text: as §8, §9, §10, §11, §12

B-Raf = B-Raf V600E vs wild-type, purified kinase assays; cited from earlier work
[5] = cited from earlier work
[6] = Sprague-Dawley, rat, plasma, IV 1 mg/kg
[7] = Sprague-Dawley, rat, plasma, PO 10 mg/kg

Compound | Human T1/2 [1] | Rat T1/2 [2] | TGI % (on the last day of dosing) (Colo-205 Tumor Xenograft; 6 mg/kg/qd) [%] | TGI % (on the last day of dosing) (Colo-205 Tumor Xenograft; 20 mg/kg/bid) [%] | TGI % (on the last day of dosing) (Colo-205 Tumor Xenograft; 20 mg/kg/qd) [%] | TGI % (on the last day of dosing) (Colo-205 Tumor Xenograft; 60 mg/kg/qd) [%] | other results
CCCS(=O)(=O)Nc1ccc(F)c(C(=O)c2cn(COP(=O)([O-])[O-])c3ncc(-c4ccc(Cl)cc4)cc23)c1F.[Na+].[Na+] [Ex. 25, sodium (5-(4-chlorophenyl)-3-(2,6-difluoro-3-(propylsulfonamido)benzoyl)-1H-pyrrolo[2,3-b]pyridin-1-yl)methyl phosphate] | ∞ | ∞ | 41 | 95 | 59 | 108 | 
CCCS(=O)(=O)Nc1ccc(F)c(C(=O)c2cn(C(C)OP(=O)([O-])[O-])c3ncc(-c4ccc(Cl)cc4)cc23)c1F.[Na+].[Na+] (centres unmarked) [Ex. 32, sodium 1-(5-(4-chlorophenyl)-3-(2,6-difluoro-3-(propylsulfonamido)benzoyl)-1H-pyrrolo[2,3-b]pyridin-1-yl)ethyl phosphate] | ∞ | ∞ | 29 | 102 | 68 | 110 | 
CCCS(=O)(=O)Nc1ccc(F)c(C(=O)c2c[nH]c3ncc(-c4ccc(Cl)cc4)cc23)c1F [Vemurafenib, N-(3-(5-(4-chlorophenyl)-1H-pyrrolo[2,3-b]pyridine-3-carbonyl)-2,4-difluorophenyl)propane-1-sulfonamide] |  |  | 33 | 101 | 73 | 104 | F ([3]; PO 10 mg/kg): 104%; AUC(0-t) [3, 6]: 25200 ng·h/mL; half-life [3, 6]: 3.75 h; AUC(0-t) [3, 7]: 261000 ng·h/mL; Cmax [3, 7]: 25400 ng/mL; Tmax [3, 7]: 4 h; half-life [3, 7]: 3.54 h; F ([4]; PO 10 mg/kg): 33.4%; AUC(0-t) ([4]; dog, plasma, IV 1 mg/kg): 4880 ng·h/mL; half-life ([4]; dog, plasma, IV 1 mg/kg): 1.59 h; AUC(0-t) ([4]; dog, plasma, PO 10 mg/kg): 16500 ng·h/mL; Cmax ([4]; dog, plasma, PO 10 mg/kg): 2150 ng/mL; Tmax ([4]; dog, plasma, PO 10 mg/kg): 2 h; half-life ([4]; dog, plasma, PO 10 mg/kg): 3.9 h; selectivity for the V600E mutation over the wild-type kinase (B-Raf): 3 fold; solubility in water [5]: low solubility in water

— patent publication US9399639B2, “Substituted azaindole compounds, salts, pharmaceutical compositions thereof and methods of use” (Calitor Sciences, LLC, priority 2012, dated 2016)
